The values below come from US5962314A, “Calcium receptor-active molecules” (priority 1997, dated 1999).

SMILES strings stand for the structures. Entries after “also recorded” stand apart in the source; their conditions may differ. Read-outs that look alike come from different tables or passages of the source.

Common to all, as to format: cell-based
Test [1] addresses T1, parathyroid cell calcium receptor (Bos taurus, UniProt P35384).
T1 sequence (P35384 20-1085): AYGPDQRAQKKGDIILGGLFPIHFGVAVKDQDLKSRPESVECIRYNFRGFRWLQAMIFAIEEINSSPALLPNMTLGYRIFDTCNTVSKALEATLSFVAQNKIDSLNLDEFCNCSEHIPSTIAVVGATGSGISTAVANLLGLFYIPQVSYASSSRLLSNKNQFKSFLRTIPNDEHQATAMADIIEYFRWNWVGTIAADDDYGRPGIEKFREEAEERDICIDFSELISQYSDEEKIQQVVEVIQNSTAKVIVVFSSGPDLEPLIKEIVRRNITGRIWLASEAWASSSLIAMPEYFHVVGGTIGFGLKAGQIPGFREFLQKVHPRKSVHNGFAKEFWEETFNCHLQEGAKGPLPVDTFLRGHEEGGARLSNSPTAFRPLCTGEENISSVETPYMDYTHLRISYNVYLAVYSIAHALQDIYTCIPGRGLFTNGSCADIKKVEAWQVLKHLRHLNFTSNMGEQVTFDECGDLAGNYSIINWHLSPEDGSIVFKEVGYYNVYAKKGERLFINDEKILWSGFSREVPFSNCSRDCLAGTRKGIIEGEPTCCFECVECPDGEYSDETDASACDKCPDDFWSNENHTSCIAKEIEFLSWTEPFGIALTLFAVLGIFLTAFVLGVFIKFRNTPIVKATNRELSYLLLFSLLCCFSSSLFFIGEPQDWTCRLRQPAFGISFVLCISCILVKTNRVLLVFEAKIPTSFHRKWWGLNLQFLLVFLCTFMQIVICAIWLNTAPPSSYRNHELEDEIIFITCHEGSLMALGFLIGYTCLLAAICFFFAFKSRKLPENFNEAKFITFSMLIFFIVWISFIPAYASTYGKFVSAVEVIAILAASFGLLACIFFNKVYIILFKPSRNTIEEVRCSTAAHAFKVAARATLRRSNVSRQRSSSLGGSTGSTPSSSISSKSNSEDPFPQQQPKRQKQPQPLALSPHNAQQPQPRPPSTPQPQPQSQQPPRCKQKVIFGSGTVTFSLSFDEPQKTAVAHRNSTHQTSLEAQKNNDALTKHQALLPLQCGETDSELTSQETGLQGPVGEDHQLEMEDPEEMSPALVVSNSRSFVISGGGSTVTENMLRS
The test can be described thus: cell-based. The following applies: for EC50: increases in intracellular calcium, fura-2 loaded cells; for effect on mobilization elicited by extracellular divalent cations / effect on [Ca2+]i at low extracellular Ca2+: 100 μM; for effect on [Ca2+]i at low extracellular Ca2+: 0.5 mM extracellular Ca2+; for relative potency, in words: parathyroid cells. On the technique in general: A change in cytosolic calcium serves as a functional read-out for many receptors and channels.
Procedure: For example,. bovine parathyroid cells loaded with fura-2 are initially suspended in buffer containing 0.5 mM CaCl2. A test substance is added to the cuvette in a small volume (5-15 μl) and changes in the fluorescence signal are measured. Cumulative increases in the concentration of the test substance are made in the cuvette until some predetermined concentration is achieved or no further changes in fluorescence are noted.
Human parathyroid glands, were obtained from patients undergoing surgical removal of parathyroid tissue for primary or uremic hyperparathyroidism (uremic HPT), and were treated similarly to bovine tissue.
The cells were then pelleted, resuspended in the same buffer, but lacking the ester, and incubated a further 15 minutes at 37° C. The cells were subsequently washed twice with PCB containing 0.5 mM CaCl2 and 0.5% BSA and maintained at room temperature (about 20° C.). Immediately before use, the cells were diluted five-fold with prewarmed 0.5 mM CaCl2 -PCB to obtain a final BSA concentration of 0.1%. The concentration of cells in the cuvette used for fluorescence recording was 1-2×10^6 /ml.
The fluorescence of indicator-loaded cells was measured at 37° C. in a spectrofluorimeter (Biomedical Instrumentation Group, University of Pennsylvania, Philadelphia, Pa.) equipped with a thermostated cuvette holder and magnetic stirrer using excitation and emission wavelengths of 340 and 510 nm, respectively. […] Leakage of dye is dependent on temperature and most occurs within the first 2 minutes after warming the cells in the cuvette. Dye leakage increases only very slowly thereafter. To correct the calibration for dye leakage, cells were placed in the cuvette and stirred at 37° C. for 2-3 minutes. The cell suspension was then removed, the cells pelleted, and the supernatant returned to a clean cuvette. […] This estimate was subtracted from the apparent Fmin.

Test [2] concerns Ca2+ influx in parathyroid cells. Nature of the test: Ca2+ influx in bovine parathyroid cells. The following applies: for effect on [Ca2+]i: 100 to 1000 μM, 2 mM CaCl2; for effect on extracellular Ca2+-elicited increases in [Ca2+]i: pretreatment.
Test [3] concerns the target T2, bovine parathyroid cell calcium receptor (Bos taurus, UniProt P35384).
T2 construct: expressed in transfected cells; host or cells: Xenopus laevis oocytes injected with BoPCaR 1 cRNA
T2 sequence (P35384 20-1085): T1 sequence (P35384 20-1085)
Nature of the test: Cl- current in Xenopus oocytes expressing BoPCaR 1. The following applies: for effect on inward currents: EGTA 100 μM, 9AC, A23187. Here is the method:
Several pharmacological and biochemical criteria were used to identify this clone as encoding a bona fide bovine parathyroid Ca^2+ receptor. […] These responses increased markedly over a period of one to four days after injection of the eggs with cRNA prepared from the BoPCaR 1 cDNA. Furthermore, the ranges of the concentrations of the two cations eliciting this response were very similar to those shown previously to act on bovine parathyroid cells in vitro.
Xenopus oocytes were injected with BoPCaR 1, the 5.3 Kb cDNA encoding a bovine parathyroid cell calcium receptor as described in Example 25. After two to three days, Cl^- currents were examined in the oocytes using a two-electrode voltage clamp.
Xenopus oocytes were injected with BoPCaR 1 as described in Example 25. After two to three days, Cl^- currents were examined in the oocytes using two electrode voltage clamp.

As to `CC1=C(C(=O)OC(C)C)[C@@H](c2cccc3nonc23)C([N+](=O)[O-])=C(C)N1` [(-) 202-791], the “effect on basal or extracellular Ca2+-evoked [Ca2+]i” value in test [1] (1 μM) is “None of the dihydropyridines tested”. Regarding `NC[C@H]1O[C@H](O[C@H]2[C@H](O)[C@@H](O[C@H]3O[C@H](CO)[C@@H](O)[C@H](N)[C@H]3O)[C@H](N)C[C@@H]2N)[C@H](O)[C@@H](O)[C@@H]1O` [Kanamycin], the “effect on [Ca2+]i” value in test [1] (500 μM) was “without effect”. One may read the EC50 as the concentration needed to bring the measured effect to its halfway point. Take `CC(N[C@H](C)c1ccccc1)c1cccc2ccccc12` (stereo partly shown) [Compound 4G]: the EC50 in test [1] (Table 8) amounted to 1.8 µM.

`NCCNCCNCCN` [Triethylenetramine (TETA), triethylenetetramine]: the “effect on [Ca2+]i” value in test [1] was “mobilize intracellular Ca^2+”. Regarding `COc1ccc(CCN(C)CCCC(C#N)(c2cc(OC)c(OC)c(OC)c2)C(C)C)cc1OC` [Compound D-600], in test [1], the “mode of action at the calcium receptor” value is reported as “partial agonists or allosteric activators”, the “effect on mobilization elicited by extracellular divalent cations” value is “potentiated the mobilization of intracellular Ca^2+” and the “effect on [Ca2+]i at low extracellular Ca2+” value is given as “evoked no change”. In addition, the “effect on influx of extracellular Ca2+” value in test [2] (100 μM) is on record as “blocked the influx of extracellular Ca^2+”. As to `COc1cccc([C@H](C)NCCCc2ccccc2Cl)c1` [NPS S-568], the concentration eliciting responses in test [3] (BoPCaR 1-injected oocytes, only at much higher concentrations) stood at 100 µM. As for `NCCCCCCCCCCCCN` [1,12-diaminododecane (DADD), 1,12-diaminododecane], in test [2], the “effect on [Ca2+]i” value is “causes a prompt fall in [Ca^2+ ]i” and the “effect on extracellular Ca2+-elicited increases in [Ca2+]i” value was “depresses steady-state, but not transient increases in [Ca^2+ ]i”. For `NCCCN(CCCN)CCCN(CCCN)CCCCN(CCCN)CCCN(CCCN)CCCN` [NPS 381, N^1,N^1,N^5,N^10,N^14,N^14-hexakis-(3-aminopropyl) spermine], in test [1], the “effect on [Ca2+]i” value was “mobilize intracellular Ca^2+”. Take `COc1cccc([C@@H](C)N[C@H](C)c2cccc3ccccc23)c1` [Compound 14Y]: in test [1] (Table 8), the EC50 was determined as 0.38 µM.

`O=C(O)c1c2ccccc2cc2ccccc12` [Compound 9AC]: the “effect on inward currents” value in test [3] is “blocks the currents”. Turning to `COc1cccc(C(C)NCCC(c2ccccc2)c2ccccc2)c1` (racemic) [meta-Methoxyfendiline], the “relative potency, in words” value in test [1] is “as potent as NPS 467”.

Regarding `N=C(N)NCCC[C@H](N)C(=O)NCCCNCCCNCCCCCNC(=O)[C@H](CC(N)=O)NC(=O)Cc1c[nH]c2cccc(O)c12` [Argiotoxin-659], the “effect on [Ca2+]i” value in test [1] (100 to 300 μM) is “evoked transient increases in [Ca^2+ ]i”.

`CC(N[C@H](C)c1ccccc1)c1ccc2ccccc2c1` (stereo partly shown) [Compound 4H]: the EC50 in test [1] (Table 8) was no less than 3 µM.

For the compound `NCCCNCCCCNCCCNCCCN(O)CCCNC(=O)Cc1c[nH]c2ccccc12` [NPS 017], in test [3] (BoPCaR 1-injected oocytes), the “effect on Cl- current” value is listed as “caused oscillatory increases in the Cl^-”. In addition, the “effect in control oocytes” value in test [3] (uninjected, water or rat liver mRNA oocytes) was “Neither NPS 017 nor NPS 019 elicited changes in Cl^-”.

For `CCCC(=O)N[C@@H](Cc1ccc(O)cc1)C(=O)NCCCCNCCCNCCCN` [Philanthotoxin-433], in test [1] (500 μM), the “effect on [Ca2+]i” value was “without effect”. As to `CC1=C(C(=O)OC(C)C)[C@H](c2cccc3nonc23)C([N+](=O)[O-])=C(C)N1` [(+) 202-791], the “effect on basal or extracellular Ca2+-evoked [Ca2+]i” value in test [1] (1 μM) was “None of the dihydropyridines tested”.

For the compound `N=C(N)NCCC[C@H](N)C(=O)NCCCNCCCNCCCCCNC(=O)[C@H](CC(N)=O)NC(=O)Cc1ccc(O)cc1O` [Argiotoxin-636], in test [1], the “effect on response to extracellular Ca2+” value is on record as “did potentiate cytosolic Ca^2+”. Also, the entries for the “effect on [Ca2+]i” value in test [1] (400 μM) and in test [1] (100 to 300 μM) were “did not elicit increases in [Ca^2+ ]” and “had no effect”, respectively.

For `CC(NCCCc1ccccc1)c1ccccc1` (stereo not shown) [Compound 1D], the “relative potency, in words” value in test [1] is recorded as “nearly as potent as the parent molecule”. `CCN(CC)CCCCCCCCOC(=O)c1cc(OC)c(OC)c(OC)c1` [TMB-8]: in test [1], the “mode of action at the calcium receptor” value was “partial agonists or allosteric activators”, the “effect on mobilization elicited by extracellular divalent cations” value is “potentiated the mobilization of intracellular Ca^2+; also recorded: potentiated transient increases in [Ca^2+ ]i” and the “effect on [Ca2+]i at low extracellular Ca2+” value is on record as “evoked no change”. The “effect on influx of extracellular Ca2+” value in test [2] (100 μM) is given as “blocked the influx of extracellular Ca^2+”. For the compound `COC(=O)C1=C(C)NC(C)=C([N+](=O)[O-])C1c1ccccc1C(F)(F)F` (stereo not shown) [BAY K 8644], in test [1] (1 μM), the “effect on basal or extracellular Ca2+-evoked [Ca2+]i” value is “None of the dihydropyridines tested”.

As to `NCCNCCNCCNCCN` [Tetraethylenepentamine (TEPA), Tetraethylenepentamine], in test [1], the “effect on [Ca2+]i” value is given as “mobilize intracellular Ca^2+”. With `CC(C)c1ccc([C@@H](C)N[C@H](C)c2cccc3ccccc23)cc1` [Compound 14L], the EC50 in test [1] (Table 8) came to 0.26 µM. Consider `COc1ccc(CC(=O)NCCCCCCCCCCCCN)cc1OC` [NPS 384], for which the “effect on [Ca2+]i” value in test [1] (NPS 384 300 μM) was “did not evoke an increase in [Ca^2+ ]i; also recorded: fails to do so”. Further, in test [2] (300 μM), the “effect on influx of extracellular Ca2+” value is “blocked influx of extracellular Ca^2+”. Further, in test [2], the “effect on [Ca2+]i” value is “causes a prompt fall in [Ca^2+ ]i” and the “effect on extracellular Ca2+-elicited increases in [Ca2+]i” value was “depresses steady-state, but not transient increases in [Ca^2+ ]i”.

On to `CCC[C@@H]1C[C@@H](C(=O)N[C@@H]([C@H]2O[C@H](SC)[C@H](O)[C@@H](O)[C@H]2O)[C@@H](C)O)N(C)C1` [lincomycin], for which the “effect on [Ca2+]i” value in test [1] (500 μM) is on record as “without effect”. With `COC(=O)C1=C(C)NC(C)=C(C(=O)OC)C1c1ccccc1[N+](=O)[O-]` [nifedipine], in test [1], the “effect on basal or extracellular Ca2+-evoked [Ca2+]i” value is on record as “None of the dihydropyridines tested”.

With `CCOC(=O)C1=C(C)NC(C)=C(C(=O)OC)C1c1cccc([N+](=O)[O-])c1` (stereo not shown) [nitrendipine], the “effect on basal or extracellular Ca2+-evoked [Ca2+]i” value in test [1] (1 μM) is “None of the dihydropyridines tested”.

As to `O=C(O)CN(CCOCCOCCN(CC(=O)O)CC(=O)O)CC(=O)O` [EGTA], the “effect on inward currents” value in test [3] is “prevents oocytes expressing the calcium receptor from responding”.

As to `CNc1ccc2oc(C[C@H]3O[C@@]4(CC[C@H]3C)O[C@H]([C@H](C)C(=O)c3ccc[nH]3)[C@H](C)C[C@H]4C)nc2c1C(=O)O` [Compound A23187], the “effect on inward currents” value in test [3] is “activated”. Consider `CC(NCCCc1ccccc1)C1CCCCC1` (stereo not shown) [Compound 20V], for which, in test [1] (Table 7), the EC50 is greater than 100 µM. As for `C[C@@H](NCc1ccc(C(C)(C)C)cc1)c1cccc2ccccc12` [Compound 15G], the 50% effective concentration (EC50) in test [1] (Table 8) is roughly 0.5 µM.
